For this assay, the system named is schizophrenia patients. Description: Genome-wide association study of iloperidone efficacy (PANSS-T) in a randomized, double-blind, placebo- and ziprasidone-controlled 28-day study. Type of assay: in vivo, human. Conditions: for Genotype associated with lower treatment effect: PANSS-T. The protocol: A genome-wide association study (GWAS) is performed to improve understanding of the pharmacogenomic basis of response to iloperidone treatment of schizophrenia patients. In the GWAS, genotypes of 205 patients are utilized to evaluate treatment with iloperidone. Linear regression is used to directly test the association between single nucleotide polymorphisms (SNPs) and PANSS-T (day 28), correcting for essential covariates including principal components.
Patients 18-65 years of age with diagnoses of schizophrenia according to the Diagnostic and Statistical Manual of Mental Disorders, 4th Edition are eligible to participate in a randomized, double-blind, placebo- and ziprasidione-controlled, 28-day study of the efficacy and safety of iloperidone. Patients are randomly assigned to iloperidone 12 mg bid, ziprasidone 80 mg bid (active control), or placebo. The primary efficacy variable is change from baseline to the last scheduled observation in PANSS-T using the data from the short-term, double-blind phase. A secondary objective is to identify genetic markers predictive of response to iloperidone. Blood samples are collected, and DNA is extracted from patients who consented to the optional GWAS.
Three analyses of the PANSS-T are conducted: 1) A two-step approach where samples are randomly split into 2 groups of iloperidone-treated patients used to discover SNPs associated with change in PANSS-T (Discovery phase) and a second group to confirm the 100 most significant SNPs (Confirmatory phase). 2) A one-step approach using the Last Observation Carried Forward (LOCF) PANSS-T data of all iloperidone-treated patients. For each SNP, the most parsimonious genetic model (e.g., homozygous for one allele v. all other genotypes [i.e., AA v. AB and BB], heterozygous v. homozygous [i.e., AB v. AA and BB]) was established with respect to iloperidone efficacy using a one-way analysis of variance (ANOVA). 3) A Mixed-effects Model Repeated Measures (MMRM) analysis was subsequently conducted using the best genetic model of each SNP in the MMRM model. MMRM analyses were also conducted with the PANSS subscales PANSS-P, PANSS-N, and PANSS-GP.
The SNPs with a statistically significant association in all 3 analyses of PANSS-T, as well as the best of each analysis are considered significant findings and are listed below in Table 3.
A logistic regression is conducted based on binary cutoffs at PANSS-T≥30 and on the top ends of the distribution logistic model, splitting the data set into two groups: robust responders (i.e., responders having PANSS_T change≥30) and weak responders (i.e., responders having PANSS-T change<20). A significant GRM8 signal is observed in allelic tests conducted, that is, linear association is observed with PANSS-T day 28, logistic model with tot change>=30 vs weak (<20) and logistic association with high and low PANSS-T.

Consider `COc1cc(C(C)=O)ccc1OCCCN1CCC(c2noc3cc(F)ccc23)CC1` [iloperidone, 1-[4-[3-[4-(6-fluoro-1,2-benzisoxazol-3-yl)-1-piperidinyl]propoxy]-3-methoxyphenyl]ethanone], for which the “Genotype associated with lower treatment effect” value (GRIP1 rs11176436) is listed as “nonTT”; the “Genotype associated with lower treatment effect” value (GRM8 rs2299503) is “nonAA”; the “Genotype associated with lower treatment effect” value (GRM8 rs11763603) was “nonCC”; the “Genotype associated with lower treatment effect” value (GRM8 rs13222700) is recorded as “nonTT”; the “Genotype associated with lower treatment effect” value (NRXN3 rs17109739) is on record as “nonCC”; the “Genotype associated with lower treatment effect” value (NTRK2 rs7049108) is given as “nonGG”. For the same compound, the “Genotype associated with lower treatment effect” value (SHANK2 rs579298) was “nonTT”. In addition, under “TT (homozygous minor allele) vs GT or GG, iloperidone 12 mg bid, PANSS-T day 28, FIG. 1”, the “iloperidone treatment effect as measured by PANSS-T by rs13222700 genotype” value is listed as “significantly higher treatment effect”. Further, the “iloperidone treatment effect as measured by PANSS-T change by rs13222700 genotype” value (TT vs GT or GG, iloperidone 12 mg bid, FIG. 3) is given as “significantly larger change in PANSS-T score”. The “P of association of GRM8 variant rs13222700 with iloperidone efficacy” value (top locus of association analyses, chromosome 7) is reported as < 1×10^−5.

These data come from patent US12146185B2, “Genetic markers for enhancing efficacy of antipsychotic treatment with iloperidone” (Vanda Pharmaceuticals Inc., priority 2018, dated 2024).
